Assay [1] relates to BM1 cells. The assay is described as follows: 3D proliferation of BM1 cells (total cell number in the invasion assay). In kind it is cell-based, human. As to conditions: BM1, 10 μM and above. The procedure:
(§1) The chemotaxis module in IncuCyte® can accurately count the number of cell in the top chamber and the bottom chamber of the ClearView plates separately. Invasive capability of the cells in the presence of various small molecule inhibitors was measured as the percentage of cells that moved to the bottom chamber over the period of 72 hours. The formula used for this calculation is (number of cells in the bottom chamber)/(number of cells in the bottom chamber+number of cells in the top chamber)×100. The total number of cells in the top and bottom chambers is used as a readout of proliferation, which was important for determining drug combinations that blocked invasion without affecting growth properties of the cells.
3D Cultures: For 3D proliferation experiments, we used Cultrex® 3D Basement Membrane Matrix, Reduced Growth Factor (Trevigen, Cat. No. 3445-005-01, Lot No 37353J16, Lot concentration: 15.51 mg/ml, referred to as BME). For all experiments, the cells in growth media were mixed with BME at a final concentration of 2 mg/ml. For 3D proliferation assays, 100 μl of the cell/BME mixture was dispensed into each well of a 96-well plate. Upon solidification of BME, 100 μl of growth media was added on top of the solidified gel. […] The growth of the cells was monitored in IncuCyte® Zoom or S3 models for the indicated duration of time.

Assay [2] relates to BM1 cells (BM1-NucLight Red). Description: High-throughput chemotactic invasion assay of nuclear-labeled BM1 cells. As to conditions: 72 hours, single drug. The class given is cell-based, human. The procedure: High-throughput chemotactic invasion assays: For testing anti-invasive drug combinations, IncuCyte® ClearView 96-Well Chemotaxis plates (Essen BioScience) were used. 2000 cells per well were embedded in 2 mg/ml BME and plated onto the chemotaxis plate following the manufacturer's instructions. Media containing 2% FBS was used in both top and bottom chambers to maintain cell viability over 72 hours or more. 200 ng/ml human EGF (Bio-Techne, 236-EG-01M) was used as the chemotactic agent in the bottom chamber, and the control wells only had the vehicle for the chemotactic agent.
This assay is more accurate when nuclear-labeled cells are used. Therefore, BM1-mKate2 (nuclear red) cells were generated using IncuCyte® NucLight Red Lentivirus Reagent (Essen BioScience, Cat. No. 4478) following the manufacturer's instructions. After transduction, cells with the highest nuclear red signal intensity (top 25%) were sorted by FACS.
as §1

Another assay has as its system JNK. Description: Signaling study in vitro, immunoblot of JNK phosphorylation in TNBC cell lines. In kind it is cell-based, human and mouse. The method, then: (§2) Signaling studies in vitro: In order to investigate the changes in stress kinase signaling upon stress in the presence of RKIP, or small molecule inhibitors of the MAPKs, cells were plated at sub-confluence. Once they reached roughly 70% confluence, they were starved overnight (16-24 hours) in serum-free media, and then induced with either anisomycin (Sigma-Aldrich, Cat. No. A9789) at 25 ng/ml or 100 ng/ml final concentration, or by 10% serum for 30 minutes to activate MAPK pathways. In studies with small molecule inhibitors of the MAPK pathway, all inhibitors were re-suspended in DMSO and used at indicated concentrations. The cells were pre-treated with the inhibitors in serum-free media for 30 minutes after overnight starvation, immediately before induction with anisomycin or serum for 30 minutes. In this case, the inducing agent was directly added to the pre-treatment media that already had the inhibitors, or the pre-treatment media was replaced by fresh media containing the inducer and the inhibitors. […]
(§3) Protein isolation and western blots: Cultured cells were washed with cold PBS and lysed in RIPA buffer with protease inhibitors (Millipore Sigma, Cat. No. 539134) and phosphatase inhibitors (GoldBio, Cat. No. GB-450). […] Supernatant was collected and the protein concentration measured using the Bradford assay. […]
On the technique in general: In western blotting, separated proteins are transferred to a membrane and probed.

In another assay the test system is orthotopic LMB tumors. The assay is described as follows: Primary orthotopic LMB tumor growth in syngeneic mice. In kind it is in vivo, mouse. As to conditions: single inhibitor; for primary LMB tumor growth determined by final tumor weight: syngeneic model, 10 mg/kg/day or lower. The procedure: For primary tumor growth experiments, 2×10^6 BM1 cells, 5×10^5 LMB cells, or 1×10^6 […] cells were injected orthotopically near the mammary fat pad of athymic nude, C57B1/6, or C3-1-TAg-REAR mice, respectively. Tumor growth was monitored over time by caliper measurements of the width and length of tumors. Tumor volumes were calculated with the formula: For the in vivo studies involving MAPK inhibitors and the 4-drug MAPKi combination treatment, small molecule inhibitors were resuspended under sterile conditions. […] No. 91893)+50% saline. JNK inhibitor SP600125 and MEK inhibitor Trametinib were diluted in corn oil (Sigma, Cat. No. C8267). For the 4-drug combinatorial treatment, all inhibitors were dissolved in their own solvent at 4×higher concentration then the desired final concentration. Then, SB203580 and URMC-099 were mixed at a 1:1 ratio, reducing the concentration for each drug down to 2×. Similarly, SP600125 and Trametinib were mixed at a 1:1 ratio. These dual combination solutions were then filtered through 0.22 μm PES filter syringes to assure sterility. Each mouse received 50 μl of each dual combination on the same day, resulting in a total of 100 μl of drug mix (2 injections per mouse) with each drug at their desired 1×final concentration. […] All injections were intraperitoneal. For the tumor growth experiments with the MAPK inhibitors, tumors were allowed to reach the size 50-100 mm^3 size before the MAPKi treatment began. Then, the mice were treated with the respective MAPKi treatment (or the control) for up to 3 weeks. Tumor size was monitored twice a week with a caliper. For the metastasis assays, the tumor cells were treated with the 4-drug MAPKi combination at the in vitro doses for 24 hours prior to injections to allow for anti-metastatic reprogramming of the cells. Homing to metastatic tissues upon intracardiac or tail vein injections can take up to 48 hours. […] After the inoculation, the mice were treated with the inhibitors daily for up to 3 weeks until the experimental endpoints discussed above were reached.

In a further assay the test system is p38. Description: Signaling study in vitro, immunoblot of p38 phosphorylation in TNBC cell lines. In kind it is cell-based, human and mouse. As to conditions: anisomycin-induced human cell lines (BM1, MB436). The method, then:
as §2, §3

Assay [3] deals with BM1 cells. The assay is described as follows: Chemotactic invasion assay, BM1 cells. In kind it is cell-based, human. The conditions noted are these: increasing doses, single drug. The procedure: (§4) Boyden Chamber Invasion Assay: Each Boyden chamber membrane (Fisher Scientific, Cat. No. 353097) was coated with a thin layer of BME (200 μl of 0.25 mg/ml stock, or total of 50 μg of BME per membrane) and incubated at 37° C. for 1 hour. Cells were trypsinized and centrifuged at 500×g for 5 minutes followed by two rounds of PBS washes to remove remaining serum-containing media. Then, the cells were resuspended in serum-free media and diluted to the desired concentration for plating onto the Boyden chambers. Each Boyden chamber received 20,000-100,000 cells in 300 μl serum-free media, depending on the cell line. 10% serum was used as the chemoattractant for these assays. For the experiments testing the effect of MAPK inhibitors on invasion, the cells were resuspended in drug-containing serum-free media immediately. After 16-24 hours, the membranes were stained with Calcein AM (Fisher Scientific, Cat. No. 354217) for 1 hour at 37° C. in the dark to stain for live cells. Cells that are in the top chamber were removed from the membrane with a wet cotton swab. Cells in the bottom chamber were dissociated from the membrane by incubating in cell dissociation buffer (Trevigen, Cultrex®, Cat. No. 3455-096-05) in a shaker at 37° C. for 1 hour. Calcein AM signal was measured in Perkin Elmer Victor X3 plate reader as a read-out of invaded cells.

A further assay deals with MB436 cells. Description: Chemotactic invasion assay, MB436 cells. The class given is cell-based, human. The conditions noted are these: increasing doses, single drug. The method, then: as §4

For `O=C(O)c1ccc2c(c1)nc(Nc1cccc(Cl)c1)c1ccncc12` [CX-4945], the “effect on growth at the doses that blocked invasion” value in the assay with BM1 cells [1] is recorded as “growth-inhibitory”.
Turning to `C[S+]([O-])c1ccc(-c2nc(-c3ccc(F)cc3)c(-c3ccncc3)[nH]2)cc1` (stereo not shown) [SB203580, 4-(4-Fluorophenyl)-2-(4-methylsulfinylphenyl)-5-(4-pyridyl)-1H-imidazole], in assay [2], the “minimal dose at which the proliferation rates were unaffected while the invasive capabilities of the cells were at least partially blocked” value (“minimal dose” for short) worked out at 1 µM. Besides, the “JNK activation upon p38 inhibition (crosstalk)” value with JNK (serum-induced, all four human and mouse TNBC cell lines) is reported as “resulted in JNK activation”. The “primary LMB tumor growth determined by final tumor weight” value in the assay with orthotopic LMB tumors was “do not affect primary LMB tumor growth”.
For the molecule `Oc1c2ccccc2c2c3c(cccc13)N=N2` [SP600125, 1,9-Pyrazoloanthrone], the “minimal dose” value in assay [2] came to 1 µM.
As to `CC(=O)Nc1cccc(-n2c(=O)n(C3CC3)c(=O)c3c(Nc4ccc(I)cc4F)n(C)c(=O)c(C)c32)c1` [Trametinib], the “minimal dose” value in assay [2] lay in the range of 0.001 to 0.01 µM. For the same molecule, in the assay with orthotopic LMB tumors (doses below 1 mg/kg), the “primary LMB tumor growth” value was “no significant effect”.
With `CN1CCN(Cc2ccc(-c3cnc4[nH]cc(-c5ccc6[nH]ccc6c5)c4c3)cc2)CC1` [URMC-099, 3-(1H-indol-5-yl)-5-[4-[(4-methyl-1-piperazinyl)methyl]phenyl]-1H-pyrrolo[2,3-b]pyridine], the “minimal dose” value in assay [2] was 0.01 to 0.05 µM. Besides, the JNK activation entry in the assay on JNK (anisomycin-induced human cell lines (BM1, MB436)) is reported as “decrease”. Moreover, the p38 activation result in the assay with p38 is “decrease”. For the same molecule, the “invasion of BM1 cells” value in the assay on BM1 cells [3] is listed as “decreased invasion”. The “invasion of MB436 cells” value with MB436 cells is given as “decreased invasion”. Moreover, the “primary LMB tumor growth determined by final tumor weight” value in the assay with orthotopic LMB tumors was “do not affect primary LMB tumor growth”.
